Results reported in patent US20230278998A1, “Compound containing structure of a five-membered heteroaromatic ring, pharmaceutical compositions thereof and applications thereof” (280 Bio, Inc., priority 2022, published 2023).

How the values were obtained:
[1] = target: PARG (Homo sapiens (Human), UniProt Q86W56); assay: PARG cell inhibition assay (PAR staining after H2O2); type: cell-based; settings: UWB1.289 cells; value in brackets
Method: PARG Cell Inhibition Assay
UWB1.289 cells were used and the medium was 50% MEBM+50% 1640+3% FBS+1×PS. The cells were cultured according to ATCC standard operation and the cells were assayed in exponential growth phase for the experiment. Re-suspend cell in medium to a proper concentration, only cells with viability greater than 90% are used for assays.
Seed cells UWB1.289 in each culture medium, incubate overnight at 37° C., 5% CO2.
Test compounds was diluted with DMSO in gradient. Add test compound in cell plate, incubate at 37° C.
Add compounds and H2O2 mixture into cell plate, incubate at 37° C. Use 100 nM PDD00017273 as positive control.
Remove solution and recovery cell, incubate at 37° C.
Remove solution in the plate and add Cold-MeOH, incubate at −20° C.
Add blocking buffer into cell plate, incubate at RT.
Add PAR mAb, incubate at 4° C. overnight.
Add secondary antibody and DNA stain DRAQ5, incubate at RT.
Wash 3 times with PBST and 2 times with PBS. Turn plate upside down and centrifuge 1000 rpm 1 min.
Scan plate using LI-COR for best result.
Calculate the % inhibition according to the following formula: % inhibition=(compound signal value−negative control signal average)/(positive control signal average−negative control signal average)×100. Use the formula Y=Bottom+(Top−Bottom)/(1+10^((Log IC50−X)*HillSlope)) to fit the curve to obtain the IC50 values.

[2] = target: PARG (389-976) (Homo sapiens (Human), UniProt Q86W56); assay: PARG enzyme inhibition assay (TR-FRET); type: biochemical
PARG (389-976), sequence (Q86W56 389-976): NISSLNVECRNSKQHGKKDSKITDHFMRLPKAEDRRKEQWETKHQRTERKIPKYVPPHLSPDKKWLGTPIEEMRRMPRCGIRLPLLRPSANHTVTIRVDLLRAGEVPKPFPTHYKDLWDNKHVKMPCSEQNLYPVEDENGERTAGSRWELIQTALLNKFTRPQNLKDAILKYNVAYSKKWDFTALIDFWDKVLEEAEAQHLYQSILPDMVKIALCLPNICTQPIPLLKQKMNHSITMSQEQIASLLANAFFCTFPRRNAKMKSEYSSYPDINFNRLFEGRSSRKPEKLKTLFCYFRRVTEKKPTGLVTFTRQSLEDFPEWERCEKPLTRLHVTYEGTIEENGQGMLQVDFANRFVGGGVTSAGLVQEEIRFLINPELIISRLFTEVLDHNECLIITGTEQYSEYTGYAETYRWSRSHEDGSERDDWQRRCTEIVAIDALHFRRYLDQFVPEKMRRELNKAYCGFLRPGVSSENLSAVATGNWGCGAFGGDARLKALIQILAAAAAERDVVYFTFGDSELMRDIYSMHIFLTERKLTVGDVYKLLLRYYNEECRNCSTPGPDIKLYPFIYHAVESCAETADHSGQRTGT
Method: PARG Enzyme Inhibition Assay
PARG in vitro assays were conducted in standard 384-well plates in a total volume of 15 μL.

PARG, sequence (Q86W56 whole entry): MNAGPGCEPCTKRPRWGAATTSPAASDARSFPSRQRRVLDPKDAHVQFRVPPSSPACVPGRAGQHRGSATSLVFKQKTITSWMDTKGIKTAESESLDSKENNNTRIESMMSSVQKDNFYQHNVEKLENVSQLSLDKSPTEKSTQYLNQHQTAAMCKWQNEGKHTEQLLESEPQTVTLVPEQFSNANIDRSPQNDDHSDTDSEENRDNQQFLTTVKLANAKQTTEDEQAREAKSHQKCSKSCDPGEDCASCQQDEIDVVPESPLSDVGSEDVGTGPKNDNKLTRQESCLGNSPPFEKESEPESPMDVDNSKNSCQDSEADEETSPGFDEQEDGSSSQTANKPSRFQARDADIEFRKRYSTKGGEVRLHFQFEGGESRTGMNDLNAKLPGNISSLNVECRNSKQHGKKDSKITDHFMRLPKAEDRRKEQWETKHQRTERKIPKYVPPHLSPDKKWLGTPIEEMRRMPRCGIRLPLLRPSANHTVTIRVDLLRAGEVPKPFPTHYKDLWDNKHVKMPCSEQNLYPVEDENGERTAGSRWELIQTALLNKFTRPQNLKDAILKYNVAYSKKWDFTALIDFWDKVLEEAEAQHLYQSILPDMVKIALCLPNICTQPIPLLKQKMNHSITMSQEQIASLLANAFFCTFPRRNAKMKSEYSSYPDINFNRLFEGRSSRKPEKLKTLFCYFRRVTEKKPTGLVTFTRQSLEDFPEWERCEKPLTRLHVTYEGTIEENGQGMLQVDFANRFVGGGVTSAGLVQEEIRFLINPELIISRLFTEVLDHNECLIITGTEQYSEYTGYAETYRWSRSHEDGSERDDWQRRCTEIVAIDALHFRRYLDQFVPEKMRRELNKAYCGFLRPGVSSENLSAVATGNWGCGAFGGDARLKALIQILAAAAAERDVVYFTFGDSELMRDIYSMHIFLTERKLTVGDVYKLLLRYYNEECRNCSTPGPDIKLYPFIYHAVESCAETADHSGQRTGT

IC50 [1] [nM] | IC50 ([2]; Table 2, class symbol) [nM] | IC50 ([2]; Table 2, value in brackets) [nM] | IC50 ([2]; Table 3, class symbol) [nM] | SMILES | IC50 ([2]; Table 1, class symbol) [nM] | IC50 ([2]; Table 1, value in brackets) [nM]
3.1 |  |  |  | CC(C)C(=O)N1CCN(c2cc(S(=O)(=O)NC3(C)CC3)cc3c(-c4nnc(C(F)F)s4)nn(C)c23)CC1 [Compound 5] | < 100 | 0.5
3.6 | < 100 | 0.6 |  | CC(C)C(=O)N1CCN(c2cc(S(=O)(=O)NC3(C#N)CC3)cc3c(-c4nnc(C(F)F)s4)nn(C)c23)CC1 [Compound 17] |  | 
 |  |  | < 100 | CCN(C)C(=O)N1CCN(c2cc(S(=O)(=O)NC3(C#N)CC3)cc3c(-c4nnc(C(F)F)s4)nn(C)c23)CC1 [Compound 145] |  | 
 |  |  | < 100 | CC(C)CC(=O)N1CCN(c2cc(S(=O)(=O)NC3(C#N)CC3)cc3c(-c4nnc(C(F)F)s4)nn(C)c23)CC1 [Compound 146] |  | 
13.4 |  |  | < 100 | Cc1cc(Cn2c(=O)n(Cc3cnc(C)s3)c(=O)c3cc(S(=O)(=O)NC4(C)CC4)ccc32)n(C)n1 [PDD00017273, reference compound] |  | 

SMILES | IC50 [1] [nM] | IC50 ([2]; Table 2, class symbol) [nM] | IC50 ([2]; Table 2, value in brackets) [nM] | IC50 ([2]; Table 3, class symbol) [nM] | IC50 ([2]; Table 1, class symbol) [nM] | IC50 ([2]; Table 1, value in brackets) [nM]
CC(C)C(=O)N1CCN(c2cc(S(=O)(=O)NC3(C)CC3)cc3c(-c4nnc(C(F)F)s4)n[nH]c23)CC1 [Compound 3] | 9.6 |  |  |  | < 100 | 1
Cc1nc(C)c(Cn2nc(-c3nnc(C(F)F)s3)c3cc(S(=O)(=O)NC4(C)CC4)ccc32)s1 [compound 1, reference compound] | 14.7 |  |  |  |  | 1.9
